The text below walks through data of patent US6794387B2, “Pharmaceutically active compounds” (Pfizer Inc., priority 2001, dated 2004).

For orientation: pIC50 means the IC50 on a negative log10 scale, so that one unit is a factor of ten. High values mean a small IC50, low ones a large IC50.

pIC50: −log10 of the molar value.

Data set [1] concerns the target T1, cGMP PDE5 (human corp. cav.) (Homo sapiens, UniProt O76074).
T1 construct: from tissue; host or cells: human corpus cavernosum
The experiment in a line: Phosphodiesterase (PDE) inhibitory activity, cGMP PDE5. In kind it is biochemical. Conditions: enzyme from human corpus cavernosum. The protocol: Compounds of the present invention are potent and selective cGMP PDE5 inhibitors. In vitro PDE inhibitory activities against cyclic guanosine 3′,5′-monophosphate (cGMP) and cyclic adenosine 3′,5′-monophosphate (cAMP) phosphodiesterases were determined by measurement of their IC50 values (the concentration of compound required for 50% inhibition of enzyme activity).
The required PDE enzymes were isolated from a variety of sources, including human corpus cavernosum, human platelets, human cardiac ventricle, human skeletal muscle and human and canine retina, essentially by the method of W. J. Thompson and M. M. Appleman (Biochem., 1971, 10, 311). […]
Assays were performed either using a modification of the “batch” method of W. J. Thompson et al. (Biochem., 1979, 18, 5228) or using a scintillation proximity assay for the direct detection of AMP/GMP using a modification of the protocol described by Amersham plc under product code TRKQ7090/7100. […] Plates were re-sealed and shaken for 20 min, after which the beads were allowed to settle for 30 min in the dark and then counted on a TopCount plate reader (Packard, Meriden, Conn.). Radioactivity units were converted to % activity of an uninhibited control (100%), plotted against inhibitor concentration and inhibitor IC50 values obtained using the ‘Fit Curve’ Microsoft Excel extension or in-house equivalent.

Data set [2] can be described thus: In vitro metabolism in human hepatic microsomal fractions (HLM half-life). In kind it is in vitro ADME. As to conditions: human liver microsomes, initial substrate concentration 1 μM, 37° C. Here is the method: In vitro metabolism experiments were carried out in the hepatic microsomal fractions from man. Transplant-quality human liver tissue was obtained from the International Institute for the Advancement of Medicine (Exton, Pa., USA). Microsomes were prepared according to the method described in Biochemical Pharmacology, […], 48, 2147-2156 and stored at −80° C. The concentrations of protein and cytochrome P450 were determined by standard methods described in Journal of Biological Chemistry, 1951, 193, 265-275 and Journal of Biological Chemistry, 1964, 239, 2370-2378.
Microsomal incubations (1.5 ml) were prepared containing 0.5 μM cytochrome P450, 200 mM phosphate buffer (pH 7.4), 0.1 M MgCl2, 0.1 M isocitric acid, 1 unit/ml isocitrate dehydrogenase and 20 mM β-NADP. […] The extracts were evaporated to dryness and analysed by LC-MS/MS (Hewlett Packard HP1100 binary pump, Hypersil HS100 C18, 5 cm by 4.6 mm internal diameter, 5 μm column using a mobile phase of 2 mM ammonium acetate in 90:10 methanol/water, aqueous portion adjusted to pH 4 with glacial acetic acid, and a flowrate of 1 ml/min). […] Disappearance rate constants (k) in human microsomal preparations were determined by linear regression of the log ratio (compound under study/internal standard) versus time. The in vitro human microsomal half-lives were determined according to the equation t1/2=In 2/k. […]
In general terms: Microsomes from liver hold many membrane-bound enzymes, among them those of drug oxidation.

In data set [1], `CCCCOc1ncc(C(C)=O)cc1-c1nn2c(CC)nc(CCC)c2c(=O)[nH]1` [Example 2, 2-(5-Acetyl-2-butoxy-3-pyridinyl)-7-ethyl-5-propylimidazo[5,1-f][1,2,4]triazin-4(3H)-one] had a pIC50 of 8.71.

In data set [1], `CCCCOc1ncc(C(C)=O)cc1-c1nn2c(CC)nc(C)c2c(=O)[nH]1` [Example 1, 2-(5-Acetyl-2-butoxy-3-pyridinyl)-7-ethyl-5-methylimidazo[5,1-f][1,2,4]triazin-4(3H)-one] had a pIC50 of 8.87. For the same compound, the half-life at 1 μM in data set [2] (pH 7.4, read-out: HLM t1/2) is 21 min.

Take `CCCc1nc(C)c2c(=O)[nH]c(-c3cc(S(=O)(=O)N4CCN(CC)CC4)ccc3OCC)nn12` [Comound A, 2-[2-ethoxy-5-(4-ethyl-piperazin-1-yl-1-sulphonyl)-phenyl]-5-methyl-7-propyl-3H-imidazo[5,1-f][1,2,4]triazin-4-one, reference compound]: the “HLM t1/2” value in data set [2] is 4 min.
